≈ marks a conversion by molar mass, not a printed value. Read-outs that look alike come from different tables or passages of the source.
Columns and labels:
Bloodstream T. brucei = assay: T. brucei bloodstream form in vitro killing; assay type: cell-based, Trypanosoma brucei
Protocol: Preliminary T. brucei inactivation experiments were performed in vitro. The life cycle of T. brucei involves a “procyclic” developmental stage in a tsetse fly, and a “bloodstream” form in humans. All studies were performed with the bloodstream stage of the parasite, because it is the disease-causing developmental stage.
Suramin, a conventional anti-HAT drug, was used as a positive control.
Bloodstream T. brucei was seeded (3×10^3 cells/mL) in 24-well (500 uL of the media per well) plate. […] Control cultures received equal volumes of DMSO.

C. guilliermondii = assay: in vitro susceptibility CLSI M27A3, MIC; assay type: cell-based; conditions: Meyerozyma guilliermondii, strain ATCC6260, WT, Echinocandin cross-reduced susceptibility
Text: (§1) (12): 1 C. orthopsilosis (981224), 1 C. metapsilosis (2006-113), C. parapsilosis (ATCC 22019 CLSI control), and C. guilliermondii (ATCC6260) (13).

C. metapsilosis = assay: in vitro susceptibility CLSI M27A3, MIC; assay type: cell-based; conditions: Lodderomyces metapsilosis, strain 2006-113, WT, Echinocandin cross-reduced susceptibility
Text: as §1

C. orthopsilosis = assay: in vitro susceptibility CLSI M27A3, MIC; assay type: cell-based; conditions: Lodderomyces orthopsilosis, strain 981224, WT, Echinocandin cross-reduced susceptibility
Text: as §1

C. parapsilosis = assay: in vitro susceptibility CLSI M27A3, MIC; assay type: cell-based; conditions: Lodderomyces parapsilosis, ATCC22019, strain ATCC 22019, WT, Echinocandin cross-reduced susceptibility
Text: as §1

[1] = tested on: Af293 strain of A. fumigatus; assay: XTT viability assay; assay type: cell-based, Aspergillus fumigatus
Protocol: This strain was selected because it is one of the best characterized strains and was the strain used for sequencing the A. fumigatus genome. XTT viability assay is based on the reduction of the tetrazolium salt (XTT) in the presence of menadione as an electron-coupling agent. There is a relationship between the number of viable fungi and the amount of XTT reduction (16).
The same methods previously described in performing the XTT assay (17) were used. Af293 conidia were plated on Sabouraud BHI slants with chloramphenicol and gentamicin (Becton Dickinson, Md.), incubated for 7 to 10 days at room temperature, and harvested by washing the slant with 10 ml of 0.05% Tween 20 in normal saline (NS). The conidial suspension then was passed through a 100-μm filter, counted on a hemacytometer, and diluted to 2.0×10^6 CFU/ml. Conidia then were diluted 1:50 in MOPS (morpholinepropanesulfonic acid)-buffered RPMI (pH 7.0). A stock solution of Example 15 dissolved in DMSO was used. […] Following the addition of drug-containing medium to each well, the conidial suspension (100 μl) was added (t=0 h). Control wells contained conidia, medium, and vehicle without drug. Blank wells consisted of medium only without conidia. […] One hundred microliters of the supernatant was transferred to a new plate, and the optical density at 450 nm (OD450) was determined by using a Labsystems Multiskan Plus plate reader. […]

[2] = tested on: human HT-29 colon adenocarcinoma xenografts
Protocol: In this study, the antitumor effect and toxicity of the three carbazoles against HCT-8 and HT29 colon cancer tumors were compared with treatment beginning when the tumor size reached 150-200 mg (about 7 days after tumor transplantation).
Eight to twelve-week-old female athymic nude mice (nu/nu, body weight 22-25 g) were obtained from Harlan Sprague Dawley Inc. (Indianapolis, Ind.) and maintained at five mice/cage with water and food ad libitum according to an institutionally approved animal protocol.
Human ileocecal adenocarcinoma HCT-8 and colon adenocarcinoma HT-29 xenografts were used. The xenografts were initially established by injecting s.c 10^6 cultured cells and tumors were passed several generations by transplanting about 50 mg non-necrotic tumor (2-3 pieces) via a trocar from the passage tumors when the tumors reach to 1-1.5 g.
Treatment was initiated 7 days after tumor transplantation when the tumors reached 150-200 mg. The mice in the control group received the vehicle (0.2% hydroxypropylmethylcellulose) at 200 μl per 20 g mouse body weight (same as the treatment groups). Five mice were used for each experimental group with 10 tumors (1 tumor each in the left and right side flanks).
Two axes (mm) of tumor (L, longest axis; W, shortest axis) were measured with the aid of a Vernier caliper. Tumor weight (mg) was estimated using a formula: tumor weight=½ (L×W2). Tumor measurements were taken daily at the same time as drug treatment and 3-4 times a week of post therapy.
The kinetics of drug-induced toxicities (body weight loss, diarrhea, and lethality) were determined daily for the first 10 days after treatment and every two days thereafter.
Antitumor activity was assessed by maximum tumor growth inhibition (MTRI) which is the mean tumor weight of treated group (MTWTG) compared with untreated control group (MTWCG) at the same time point (MTRI=MTWTG−MTWCG)÷MTWCG×100%). The tumor doubling time (TDT) was defined as the mean time for the tumor to reach twice its initial weight. Tumor response was expressed as partial tumor response (PR) when tumor weight was reduced at least 50% of the initial tumor size and complete tumor response (CR) was defined as the inability to detect tumor upon palpation at the initial site of tumor appearance.

## CCN(CC)CCn1c2ccc3c(c2c2c4c(ccc21)C(=O)CC4)CCC3=O [Example 15]
Bloodstream T. brucei; 48 hrs, up to 200 nM Example 7, 20 nM Example 13, 3 nM Example 15
  elimination of parasites: completely eliminated T. brucei
Bloodstream T. brucei; Trypanosoma brucei, read-out: IC50 (concentration that killed 50% of the parasites), bloodstream stage, 48 hrs of culture
  IC50: ~0.5 nM
C. guilliermondii; read-out: MIC* (24 hs)
  MIC: 0.08 µM (≈ 0.03 µg/mL)
C. guilliermondii; read-out: MIC* (48 hs)
  MIC: 0.16 µM (≈ 0.0599 µg/mL)
C. metapsilosis; read-out: MIC* (24 hs)
  MIC: 0.16 µM (≈ 0.0599 µg/mL)
C. metapsilosis; read-out: MIC* (48 hs)
  MIC: 0.16 µM (≈ 0.0599 µg/mL)
C. orthopsilosis; read-out: MIC* (24 hs)
  MIC: 0.16 µM (≈ 0.0599 µg/mL)
C. orthopsilosis; read-out: MIC* (48 hs)
  MIC: 0.16 µM (≈ 0.0599 µg/mL)
C. parapsilosis; read-out: MIC* (24 hs)
  MIC: 0.08 µM (≈ 0.03 µg/mL)
C. parapsilosis; read-out: MIC* (48 hs)
  MIC: 0.08 µM (≈ 0.03 µg/mL)
[1]; Aspergillus fumigatus, XTT assay at 24 h
  IC50: ~2500 nM
[1]; visual inspection of the wells
  concentration for complete suppression of fungal growth: greater than 12.5 μM
[2]
  delay of tumor growth (control double time 7.8 days): 76%
  inhibitory rate / tumor growth inhibition: 58%
[2]; p.o. at MTD, 5 days on/2 days off per week, Example 15 5, Example 7 30, Example 13 25 mg/kg/d
  Antitumor Activity MTGI (%): 58.4 ± 6.4%
[2]; same
  Toxicity (%) lethality: 40%
[2]; same, complete tumor response
  CR (%): 0%
[2]; same, maximum weight loss of pretreatment body weight
  Toxicity (%) MWL: 17.9 ± 6.8%
[2]; same, partial tumor response
  PR (%): 0%
[2]; same, tumor doubling time
  Antitumor Activity TDT: 13.1 ± 2.3 days
